Measurements as given in US7442794B2, “Rearranged pentanols, a process for their production and their use as anti-inflammatory agents” (Schering AG, priority 2003, dated 2008).

Experiments:
[1] = target: glucocorticoid receptor (GR) (Homo sapiens, UniProt P04150); assay: biochemical
From the text: The binding of the substances to the glucocorticoid receptor (GR) and other steroid hormone receptors (mineral corticoid receptor (MR), progesterone receptor (PR) and androgen receptor (AR)) is examined with the aid of recombinantly produced receptors. Cytosol preparations of Sf9 cells, which had been infected with recombinant baculoviruses, which code for the GR, are used for the binding studies.

[2] = test system: secretion of cytokine IL-8 in human monocyte cell line THP-1 triggered by lipopolysaccharide (LPS); assay: Inhibition of LPS-triggered secretion of cytokine IL-8 in THP-1 cells (ELISA); assay type: cell-based; conditions: LPS-triggered IL-8 secretion, THP-1, supernatant ELISA, read-out: inhibition IC50(IL8)
Experimental: The concentration of the cytokines was determined in the supernatant by means of commercially available ELISA kits.

Chain of glucocorticoid receptor (GR) (P04150 whole entry, species assumed): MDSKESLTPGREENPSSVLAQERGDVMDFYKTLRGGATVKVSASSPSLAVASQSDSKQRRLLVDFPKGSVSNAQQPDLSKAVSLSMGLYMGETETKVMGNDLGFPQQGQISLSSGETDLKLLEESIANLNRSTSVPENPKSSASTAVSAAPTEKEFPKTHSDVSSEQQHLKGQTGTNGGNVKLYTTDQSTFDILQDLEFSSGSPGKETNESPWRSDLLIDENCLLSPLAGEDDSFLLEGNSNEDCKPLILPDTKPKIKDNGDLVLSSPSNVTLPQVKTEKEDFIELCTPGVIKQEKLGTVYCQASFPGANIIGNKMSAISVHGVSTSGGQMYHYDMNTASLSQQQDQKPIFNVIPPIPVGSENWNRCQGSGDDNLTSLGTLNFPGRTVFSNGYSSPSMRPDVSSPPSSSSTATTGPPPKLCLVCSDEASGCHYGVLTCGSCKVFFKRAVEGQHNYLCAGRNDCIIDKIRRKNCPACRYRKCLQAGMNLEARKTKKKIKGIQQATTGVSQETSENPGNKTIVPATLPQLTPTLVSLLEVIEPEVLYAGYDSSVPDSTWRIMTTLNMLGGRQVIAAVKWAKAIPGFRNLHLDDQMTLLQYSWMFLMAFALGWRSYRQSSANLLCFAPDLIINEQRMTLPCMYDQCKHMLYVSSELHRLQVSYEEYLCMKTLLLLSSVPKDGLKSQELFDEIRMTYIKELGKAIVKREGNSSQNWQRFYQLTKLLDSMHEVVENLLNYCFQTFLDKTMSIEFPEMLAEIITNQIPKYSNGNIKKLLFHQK

SMILES | melting point | IC50 [1] | IC50 [2]
C=C(C)CC(O)(C(Nc1ccc(F)c2nc(C)ncc12)c1ccc(Cl)cc1OC)C(F)(F)F (racemic) [Example 7, 2-{4-Chloro-alpha-[(8-fluoro-2-methylquinazolin-5-yl)amino]-2-methoxybenzyl}-1,1,1-trifluoro-4-methylpent-4-en-2-ol] | 72 to 73 °C | – | –
C=C(C)CC(O)(C(Nc1cccc2c(=O)[nH]ccc12)c1cc(Br)ccc1O)C(F)(F)F (stereo not drawn) [Example 3, 5-{[1-(5-Bromo-2-hydroxyphenyl)-2-hydroxy-4-methyl-2-(trifluoromethyl)-pent-4-en-1-yl]amino}-isoquinolin-1(2H)-one] | – | 64 nM | 25 nM
